Compound O=c1cc(-c2cc(OCc3ccccc3)cc(OCc3ccccc3)c2)oc2cc(OCC(O)CN3CCN(c4ccccc4)CC3)ccc12 (stereo unspecified) has a melting point of 168 to 170 °C. Compound COC(=O)CC(NC(=O)CC1CCCCC1)C(C)=O (stereo unspecified) has a melting point of 75 to 76 °C. COc1nccnc1NS(=O)(=O)c1cccc(F)c1 gave a melting point of 142 to 143 °C. Compound COC(=O)C(NC(=O)OCc1ccccc1)OC (stereo unspecified) has a melting point of 74 to 75 °C. In the case of Cc1cccc(OCC(F)(F)F)c1NC(=O)CCl, the melting point is reported as 128 to 129 °C. Compound Cn1c(C(F)(F)F)cc(=O)n(-c2cc(OCC(N)=O)c(Cl)cc2F)c1=O has a melting point of 104 to 106 °C. For CCCC12CCC3=C(CCc4cc(OC)ccc43)C1CCC2=O (stereo unspecified), the melting point was 111 to 113 °C. Work on Cn1c(=O)nc(-c2ccccc2)c2cc(Cl)ccc21 yielded a melting point of 224 °C. Work on Cc1c(NC(=O)c2cccc(OCCN)c2)c2ccccn2c1C(=O)c1ccc(NC(=O)C(F)(F)F)c(C(=O)OCc2ccccc2)c1 yielded a melting point of 219 °C. O=c1c2c(oc3cc(OCCN4CCOCC4)ccc13)C(=Cc1ccccc1)CC2 showed a melting point of 167 to 169 °C. Compound O=C1c2ccc(Cl)cc2C(=O)N1CCN1CCC(c2noc3cc(F)ccc23)CC1 has a melting point of 170 to 171 °C. Compound CCc1noc(C)c1C(C)=NNc1ccccc1 has a melting point of 72 to 75 °C. Work on Nc1ncc2ncn(CCC(CO)COC(=O)c3ccccc3)c2n1 (stereo unspecified) yielded a melting point of 116 to 118 °C. In the case of Nc1nc2c(sc(=O)n2C2OC(COC(=O)c3ccccc3)C(OC(=O)c3ccccc3)C2F)c(=O)[nH]1 (stereo unspecified), the melting point is reported as 282 to 284 °C. CSc1ccc(-c2nn(Cc3ccc(F)cc3F)c(=O)cc2-c2ccc(Cl)cc2)cc1 gave a melting point of 157 to 158 °C. For COC(=O)c1ccc(OCC(O)c2cc3cc(C(C)(C)C)ccc3o2)cc1 (stereo unspecified), the melting point was 110 to 112 °C. Compound CCCCOc1c(-c2cc(C=CC(=O)O)ccc2OC)cc(C(C)(C)C)cc1C(C)(C)C has a melting point of 204 to 206 °C. N#CCNC(=O)C(Cl)c1ccccc1 (stereo unspecified) showed a melting point of 73 to 74 °C. In the case of CC(C)c1cccc(C(C)C)c1NC(=O)N(c1ccccc1)c1nnn(CCCCCCCC=O)n1, the melting point is reported as 104 to 106 °C. Compound CCCCOC(=O)C(CC(=O)O)NCCCN(C)C (stereo unspecified) has a melting point of 154 to 158 °C. COc1ccc(-c2csc(Nc3cccc4ccccc34)n2)cc1OC gave a melting point of 244 to 246 °C. Work on CN(C)C=CC(=O)c1cccnc1 yielded a melting point of 66 to 67 °C. Work on CC(=O)Oc1c(C)cc(NC(=O)NC2=C(c3ccccc3)c3ccccc3CS2)cc1C yielded a melting point of 206 to 208 °C. In the case of CCCCCCOc1ccc(-c2nc(-c3ccc(OCCCCCC)cc3O)nc(-c3ccc(OCCCCCC)cc3OCCCCCC)n2)c(O)c1, the melting point is reported as 85 to 87 °C. In the case of O=S(=O)(O)c1ccc(Nc2ccnc3cc(Cl)ccc23)cc1Cl, the melting point is reported as 280 to 285 °C. In the case of CSc1sccc1C#N, the melting point is reported as 112 to 115 °C. CC(=O)COc1cc2c(c(Cl)c1Cl)C(=O)C(C)(c1ccccc1)C2 (stereo unspecified) showed a melting point of 144 °C. Compound CCCCCC[C@H](C)Oc1ccc(-c2ccc(O)cc2)cc1 has a melting point of 100 °C. For CCCC[C@H](NC(=O)[C@H](CC(C)C)NC(=O)c1cc2cccc(F)c2o1)C(=O)CSCc1ccco1, the melting point was 102 to 103 °C. With CCCCOc1ncc(C(=O)N[C@@H]2CCCC[C@H]2O)cc1-c1cc(C(F)(F)F)ccc1F the melting point was 172 to 178 °C. CCOC(=O)c1c(N2CCN(C(=O)c3cccs3)CC2)c2cccnc2n(Cc2ccccc2)c1=O showed a melting point of 168 °C. For CCCCCCCCCCCCNc1ccc(OCC)cc1, the melting point was 38 to 39 °C. For COC(=O)c1[nH]c(C)c(C)c1OCCCCl, the melting point was 117 to 120 °C. With O=C(NCc1ccc(Cl)cc1)c1cn(CCN2CCCC2)c2ccc(C#CCO)cc2c1=O the melting point was 189 to 192 °C. In the case of CCOC(=O)NC1=NN(c2cccc(Cl)c2)C(=O)C1, the melting point is reported as 189 °C. In the case of COCCNC(=O)c1cccc(-c2cccc3cc(Cc4cc(F)cc(Cl)c4)sc23)c1F, the melting point is reported as 124 to 125 °C. CC(C)(C)C(=O)c1c[nH]c2ncc(-c3cccc(OCc4ccccc4)c3)nc12 gave a melting point of 184 to 185 °C. Work on CCCc1c(O)c(C(C)=O)cc(Cl)c1OCCOCCOc1c(C(C)=O)ccc(OCC(=O)O)c1CCC yielded a melting point of 89 to 91 °C. COC1(C[N+](=O)[O-])OC(=O)c2cc(C)c(C)cc21 (stereo unspecified) showed a melting point of 147 to 150 °C. Work on Cc1ccnc2c(N)cc3c(c12)OCO3 yielded a melting point of 118 to 120 °C. CC(C)(C)OC(=O)N1CCc2c(/C=C/[N+](=O)[O-])c3ccccc3n2CC1 gave a melting point of 227 to 230 °C. In the case of O=C(NC(Cc1ccc(OCc2ccccc2)cc1)C(=O)O)c1nc2ccc(-c3ccc(Cl)cc3)cn2c1Cl (stereo unspecified), the melting point is reported as 242 to 244 °C. Work on N#CCC1CC(=O)N(c2ccc(F)cc2)C1=O (stereo unspecified) yielded a melting point of 97 °C. With Cc1nc2cccc(OCC(C)C)c2c(N)c1C(=O)O the melting point was 204 °C. Compound CN(c1cccc(C(F)(F)F)c1)c1nc2c(-c3cccc(C(=O)NCCO)c3)cccc2n1C has a melting point of 156 to 158 °C. With O=C1CSCC(=O)NCCOCCN1 the melting point was 186 to 188 °C. For O=C(c1ccccc1)N1CC(OCc2ccccc2)C(OCc2ccccc2)C(OCc2ccccc2)C1CO (stereo unspecified), the melting point was 104 to 106 °C. In the case of O=C(N[C@H]1CC[C@H](CCN2CCN(c3nccc4c3CCO4)CC2)CC1)c1ccnc2ccccc12, the melting point is reported as 210 °C. For COC(=O)c1ccccc1N=CNc1nnn[nH]1, the melting point was 199 to 200 °C. In the case of O=C(NCC(C(=O)O)C(F)(F)F)Nc1ccccc1 (stereo unspecified), the melting point is reported as 180 to 181 °C. CC(C)(C)c1cc(C=O)n(Cc2ccc(C(F)(F)F)cc2Cl)n1 showed a melting point of 147 to 149 °C. With CC12CCC(C(=O)O)=CC1=CCc1cc(Cl)ccc12 (single isomer, unassigned; (-)) the melting point was 228 to 230 °C. For CC(=O)OCC1(c2ccc(F)cc2)CCC(=O)CC1, the melting point was 80 to 84 °C. CC(=O)SCC(Cc1ccccc1)C(=O)NC(CCCNC(=N)N)C(=O)O (stereo unspecified) gave a melting point of 253 to 295 °C. Compound COc1cc2c(cc1OC)CN(CCCSc1ccc(NC(=O)c3cccc4c(=O)c5cccc(OC)c5[nH]c34)cc1)CC2 has a melting point of 199 °C. Compound CCCCCC/C=C(\C(=O)Nc1ccc(C(=O)O)cc1)c1ccc2c(c1)C(C)(C)CCC2(C)C has a melting point of 183 to 184 °C. For COc1ccc(C(=O)Nc2ccc3ccc(S(=O)CCN(C)C)nc3n2)cc1 (stereo unspecified), the melting point was 158 °C. c1ccc(-c2cn3c4c(sc3n2)CCCC4)cc1 showed a melting point of 158 to 160 °C. In the case of NS(=O)(=O)Oc1ccc(C(=O)c2ccccc2)cc1, the melting point is reported as 131 to 133 °C. Compound O=C(O)C1CCc2c(c3cc(O)ccc3n2C(=O)c2ccccc2)C1 (stereo unspecified) has a melting point of 224 to 227 °C. With CC(Nc1ccc(Cl)c(Cl)c1)C(=O)O (stereo unspecified) the melting point was 148 to 149 °C. Work on O=C(O)c1ccccc1N1CCN(CC(O)COc2ccc3c(c2)OCO3)CC1 (stereo unspecified) yielded a melting point of 229 to 231 °C. CS(=O)(=O)NCC(=O)CCN1CCC(C2c3ncc(Br)cc3CCc3cc(Cl)cc(Cl)c32)CC1 (single isomer, unassigned; (+)) showed a melting point of 110 to 113 °C. Work on COC(=O)c1nc(Cl)c(N2CCCC2)nc1N yielded a melting point of 245 to 248 °C. For O=[N+]([O-])c1c(Br)nn(Cc2ccc(Cl)cc2)c1NCc1ccccc1, the melting point was 139 to 141 °C. With COc1ccc(C(OCC2OC(n3cnc4c(NC(=O)c5ccccc5)ncnc43)C(O)C2O[Si](C)(C)C(C)(C)C)(c2ccccc2)c2ccccc2)cc1 (stereo unspecified) the melting point was 189 °C. CC(=O)N1CCC(Oc2ccc(N(C)C)cc2)CC1 gave a melting point of 78 to 80 °C. In the case of O=C(OC(c1ccccc1)c1ccccc1)C(NC=S)c1ccccc1 (stereo unspecified), the melting point is reported as 129 to 130 °C. Compound CC(C)(C)OC(=O)C1CSC(c2cccc(F)c2F)N1 (mixture of isomers) has a melting point of 120 °C. For COC(=O)c1cccc(-c2nc(CO)cs2)c1, the melting point was 115 to 117 °C. Cc1c(CN2CCc3c(c4cccc(F)c4n3C)C2=O)ncn1C gave a melting point of 174 to 175 °C. CC(=O)c1ccc(Nc2cnc3c(NCc4ccccc4)nc(NCCO)nc3c2)cc1 showed a melting point of 125 to 126 °C. For CC(C)(C)OC(=O)N1CCC(C2=C(C#N)C(c3cccc(C#N)c3Br)c3c[nH]nc3N2)CC1 (stereo unspecified), the melting point was over 270 °C. In the case of CN(C)Cc1ccc2c(c1)nnn2Cc1c(Cl)c(Cl)cc2[nH]c(=O)c(=O)[nH]c12, the melting point is reported as 282 °C. O=S(=O)(c1ccccc1)N1CCCC1c1cccc(F)c1 (racemic) gave a melting point of 96 °C. O=C1O[C@@H](Cn2ccnn2)CN1c1ccc(-c2ccc(C3=NOC(C(O)c4ccccc4)C3)nc2)c(F)c1 (stereo partly specified) showed a melting point of 182 °C. Work on CCOc1c(CO)cnc2c1cnn2CC yielded a melting point of 100 to 102 °C. In the case of COc1ccc(-c2coc3ccc(C(=O)NNC(C)=O)cc23)cc1, the melting point is reported as 219 to 220 °C. NS(=O)(=O)c1cc2c(cc1Cl)C(=O)N(Cc1cccnc1)C2=O gave a melting point of 210 to 212 °C. Nc1cc(C#Cc2ccccc2)c(-c2cc([N+](=O)[O-])c(N)cc2C#Cc2ccccc2)cc1[N+](=O)[O-] showed a melting point of 252 to 253 °C. Work on FC(F)(F)c1nnnn1-c1ccc(OCc2ccccc2)c(Br)c1 yielded a melting point of 66 to 68 °C. For COc1cc(O)c2c(c1)OC(C(C)(C)C=C1N=C(c3ccccc3)OC1=O)CC2=O (stereo unspecified), the melting point was 147 to 149 °C. In the case of CC1CC(=O)NN=C1c1ccc(NCC(C)(C)N)cc1 (stereo unspecified), the melting point is reported as 184 to 185 °C. Cc1nc2sccn2c(=O)c1O showed a melting point of 225 to 227 °C. For Cc1ccc(C)n1CCNC(=O)CN1CCCC1=O, the melting point was 109 to 111 °C. Work on O=S1(=O)CC2(CCCCC2)[C@@H](O)[C@H](c2ccccc2)c2ccccc21 (relative stereo) yielded a melting point of 99 to 100 °C. With N#CC1=C(C2CCCCC2)Nc2n[nH]cc2C1c1cccc2nonc12 (stereo unspecified) the melting point was 210 °C. OCc1nc2n(n1)-c1ccccc1N(c1cccc(C(F)(F)F)c1)C2 showed a melting point of 168 to 171 °C. O=C(Cl)c1cccc(C(=O)Cl)c1[N+](=O)[O-] showed a melting point of 129 to 132 °C. With CCOC(=O)COc1ccc2c(C)c(CCN(CC)CC)c(=O)oc2c1Br the melting point was 150 to 151 °C. CC(C)C[C@H]1CNC[C@H]1C(=O)O (relative stereo) gave a melting point of 260 to 262 °C. In the case of CCOC(=O)C(Cl)(Cl)CCCCCCCCCCCCS(=O)(=O)c1ccccc1, the melting point is reported as 69 to 71 °C. With CN(C)Cc1nc(C=O)nn1-c1ccc(Cl)cc1C(=O)c1ccccc1 the melting point was 178 to 181 °C. For CN(c1cccc2cc(C3=NCC(C)(CCN4CCOCC4)S3)[nH]c12)S(=O)(=O)c1cccs1 (stereo unspecified), the melting point was 154 to 155 °C. For CC(C)n1nc(-c2c(-c3ccccc3)nn3ccc(C(=O)NCCN(C)C)cc23)ccc1=O, the melting point was 157 to 158 °C. Work on C=C(C)c1ccccc1S(=O)(=O)NC(=O)Nc1nc(C)cc(C)n1 yielded a melting point of 177 to 183 °C.

— a melting point compilation (Tetko et al.; mined from patent text by program, amines drawn as free bases though some values may be those of a salt)
